# System: human renal cell carcinoma cell line (Caki-1)
# Assay: Tumor growth-inhibitory action by combined use of Compound A and everolimus in nude mice transplanted with Caki-1
# Assay type: in vivo
# Settings: subcutaneous Caki-1 xenograft, oral once per day, Compound A 10 mg/kg, everolimus 30 mg/kg
# Method: Using 5 individuals per group of nude mice (CAnN.Cg-Foxn1nu/Cr1Cr1j, female, Charles River Japan, Inc.), the antitumor effect obtained when Compound A, everolimus or the both compounds was/were administered was evaluated. Human-derived renal cell carcinoma cell line Caki-1(ATCC) was added to a medium (RPMI-1640, Wako Pure Chemical Industries, Ltd.) to a density of 2×10^8 cells/mL and suspended therein. To the resulting suspension, an equal volume of Matrigel™ matrix (Nippon Becton Dickinson Co., Ltd.) was added, and the resulting mixture was mixed sufficiently. The mixture was subcutaneously transplanted at the left flank of each mouse in an amount of 0.1 mL.
# Forty eight days after the transplantation, the major axis and the minor axis were measured using an electronic digital caliper (Digimatic™ caliper, Mitutoyo Corporation). The mice were separated into groups such that the average value of the tumor volume is almost the same among the groups. The volume of the tumor was calculated according to the equation below.
# Tumor volume=major axis (mm)×minor axis (mm)×minor axis (mm)/2
# Compound A was dissolved in purified water to a concentration of 1 mg/mL. Further, everolimus was suspended in a mixed solution of DMSO, Tween 80 and glucose (3.5:6.5:90 (V/V/V), hereinafter referred to as solvent) to a concentration of 3 mg/mL.
# To the mice of each group, the Compound A solution and the solvent, the everolimus suspension and purified water, or the Compound A solution and the everolimus suspension were orally administered in an amount of 10 mL/kg once per day for 15 days. The doses of Compound A and everolimus were 10 mg/kg and 30 mg/kg, respectively. To the control group, 10 mL/kg each of purified water and the solvent was administered.
# The tumor volume of each mouse was measured on Day 4, 7, 11 and 14 after the beginning of the administration. The ratio of the tumor volume observed on each day of the measurement relative to the tumor volume observed on the day when the administration was begun was calculated as the relative tumor volume (hereinafter referred to as RTV).
# [1] = Day 4 after beginning of administration
# [2] = Day 7 after beginning of administration
# [3] = Day 11 after beginning of administration
# [4] = Day 14 after beginning of administration
SMILES,relative tumor volume (RTV) [1],relative tumor volume (RTV) [2],relative tumor volume (RTV) [3],relative tumor volume (RTV) [4]
"COc1cc2nccc(Oc3ccc(NC(=O)NC4CC4)c(Cl)c3)c2cc1C(N)=O [Compound A, 4-[3-chloro-4-(cyclopropylaminocarbonyl)aminophenoxy]-7-methoxy-6-quinolinecarboxamide]",1.15,1.15,1.07,1.02
"COC1CC2CCC(C)C(O)(O2)C(=O)C(=O)N2CCCCC2C(=O)OC(C(C)CC2CCC(OCCO)C(OC)C2)CC(=O)C(C)/C=C(\C)C(O)C(OC)C(=O)C(C)CC(C)/C=C/C=C/C=C/1C (centres unmarked) [Everolimus, 42-O-(2-hydroxyethyl)-rapamycin]",1.03,0.97,0.95,0.92
